Marks after values point to notes of the source that are not given here.
How the values were obtained:
IL-2 production = details: in vitro; cited from earlier work
[1] = tested on: central benzodiazepine (BZ) receptors; details: cited from earlier work
lymphocyte = details: in vitro; cited from earlier work
peripheral BZ receptors = peripheral BZ receptors (Homo sapiens, UniProt P30536); details: cited from earlier work
[2] = tested on: neutrophil production (absolute neutrophil count); test: Increase in neutrophil production in 16-day study in rat; format: in vivo
Procedure: Animals were identified using an implanted microchip identification device encoded with a unique number. Each animal was dosed daily via oral gavage with either a test substance (R-tofisopam) or control, starting on Day 1 and through day 15. The control article was 0.5% low viscosity carboxymethylcellulose (CMC) (Lot No. 74231) and 0.4% Tween 80® (lot no. QJ1033) in reverse osmosis water.
The animals were sacrificed on Day 16 (with the exception of three males and one female which died on test or was sacrificed before the scheduled termination, and which are not included in the mean neutrophil count data). Neutrophil counts in Table 2, below, are reported as a mean value of the count for the animals of each group surviving and sacrificed on Day 16.
The normal range of absolute neutrophil counts is […] for male and 0.2–2.4×10^3 cells/μL for female rats. For each sex, groups 2–4 were compared with the control group (Group 1M or 1F). Group comparisons were evaluated at the 5.0%, two-tailed probability level. Data marked with * represents a statistically significant difference from the corresponding control group.

[3] = in vivo; cited from earlier work
[4] = female rats, group 2F, 100 mg/kg/day oral gavage days 1-15
[5] = female rats, group 3F, 200 mg/kg/day oral gavage days 1-15
[6] = female rats, group 4F, 400 mg/kg/day oral gavage days 1-15
[7] = male rats, group 2M, 100 mg/kg/day oral gavage days 1-15
[8] = male rats, group 3M, 200 mg/kg/day oral gavage days 1-15
[9] = male rats, group 4M, 400 mg/kg/day oral gavage days 1-15

peripheral BZ receptors, sequence (P30536 whole entry): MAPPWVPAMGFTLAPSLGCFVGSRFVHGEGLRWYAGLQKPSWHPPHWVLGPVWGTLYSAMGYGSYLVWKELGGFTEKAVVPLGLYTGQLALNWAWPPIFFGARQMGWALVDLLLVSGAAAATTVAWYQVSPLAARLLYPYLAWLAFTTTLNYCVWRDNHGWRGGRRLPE

Molecule: CCC1C(C)=NN=C(c2ccc(OC)c(OC)c2)c2cc(OC)c(OC)cc21 (racemic) [tofisopam]
- IL-2 production (IL-2 production): enhances
- interaction with central benzodiazepine (BZ) receptors [1]: does not interact
- mitogen-induced lymphocyte proliferation (lymphocyte): enhances
- binding to peripheral BZ receptors (peripheral BZ receptors): binds only weakly

Molecule: CC[C@H]1C(C)=NN=C(c2ccc(OC)c(OC)c2)c2cc(OC)c(OC)cc21 [R-tofisopam, (R)-1-(3,4-dimethoxyphenyl)-4-methyl-5-ethyl-7,8-dimethoxy-5H-2,3-benzodiazepine]
- Mean % change (day 16) [2, 4]: 29* %
- Mean Neutrophil count (day 16) [2, 4]: 2.4* × 10^3/μL
- Mean % change (day 16) [2, 5]: 47* %
- Mean Neutrophil count (day 16) [2, 5]: 6.0* × 10^3/μL
- Mean % change (day 16) [2, 6]: 63* %
- Mean Neutrophil count (day 16) [2, 6]: 11.6* × 10^3/μL
- neutrophil levels versus control group ([2]; male and female rats, 100-400 mg/kg/day oral gavage, 5.0% two-tailed probability level): significantly increased in a dose-dependant manner
- Mean % change (day 16) [2, 7]: 43* %
- Mean Neutrophil count (day 16) [2, 7]: 5.7* × 10^3/μL
- Mean % change (day 16) [2, 8]: 45* %
- Mean Neutrophil count (day 16) [2, 8]: 7.4* × 10^3/μL
- Mean % change (day 16) [2, 9]: 57* %
- Mean Neutrophil count (day 16) [2, 9]: 12.9* × 10^3/μL

B1: Nupogen: recombinant version of a human protein, G-CSF (granulocyte-colony stimulating factor) (protein, chains of the INN, looked up)
chain: MTPLGPASSLPQSFLLKCLEQVRKIQGDGAALQEKLCATYKLCHPEELVLLGHSLGIPWAPLSSCPSQALQLAGCLSQLHSGLFLYQGLLQALEGISPELGPTLDTLQLDVADFATTIWQQMEELGMAPALQPTQGAMPAFASAFQRRAGGVLVASHLQSFLEVSYRVLRHLAQP
- elimination half-life [3]: 3.5 h

B2: Neulasta: a longer acting derivative of filgrastim (protein, chains of the INN, looked up)
chain: TPLGPASSLPQSFLLKCLEQVRKIQGDGAALQEKLCATYKLCHPEELVLLGHSLGIPWAPLSSCPSQALQLAGCLSQLHSGLFLYQGLLQALEGISPELGPTLDTLQLDVADFATTIWQQMEELGMAPALQPTQGAMPAFASAFQRRAGGVLVASHLQSFLEVSYRVLRHLAQP
modifications: PEG 20 kDa
notes: a longer acting derivative of filgrastim
- elimination half-life [3]: 15 to 80 h
